Species on record: Rattus norvegicus
Test: DrugMatrix - Regimen: Daily Repeat
Format: toxicity, organism-based, Sprague-Dawley
Set-up: regimen Daily Repeat, gender Male, age 6-8 weeks
Settings: in vivo, po, route oral GAVAGE, […]; for ABSOLUTE BASOPHIL / ABSOLUTE EOSINOPHIL / ABSOLUTE LYMPHOCYTE / ABSOLUTE MONOCYTE / ABSOLUTE SEGMENTED NEUTROPHIL / BASOPHIL / EOSINOPHIL / ERYTHROCYTE COUNT / HEMATOCRIT / HEMOGLOBIN / LEUKOCYTE COUNT / LYMPHOCYTE / MEAN CORPUSCULAR HEMOGLOBIN / MEAN CORPUSCULAR HEMOGLOBIN CONCENTRATION / MEAN CORPUSCULAR VOLUME / MONOCYTE / NEUTROPHIL / NUCLEATED RED BLOOD CELLS / PLATELET COUNT: tissue Blood; for ALANINE AMINOTRANSFERASE / ALBUMIN / ALKALINE PHOSPHATASE / ASPARTATE AMINOTRANSFERASE / BLOOD UREA NITROGEN / CARBON DIOXIDE / CHLORIDE / CHOLESTEROL / CREATINE PHOSPHOKINASE / CREATININE / GLUCOSE / LACTATE DEHYDROGENASE / LIPASE / PHOSPHORUS / POTASSIUM / SODIUM / TOTAL BILIRUBIN / TOTAL PROTEIN / URIC ACID: tissue Plasma
[1] = 30 mg/kg, 120 h, dose level Low, time 5 day
[2] = 60 mg/kg, 72 h, dose level High, time 3 day
[3] = 60 mg/kg, 120 h, dose level High, time 5 day

SMILES: Cc1oncc1C(=O)Nc1ccc(C(F)(F)F)cc1 [LEFLUNOMIDE]
- ABSOLUTE BASOPHIL [1]: 0 CELLS/uL
- ABSOLUTE EOSINOPHIL [1]: 25.33 CELLS/uL
- ABSOLUTE LYMPHOCYTE [1]: 6685.33 CELLS/uL
- ABSOLUTE MONOCYTE [1]: 149.33 CELLS/uL
- ABSOLUTE SEGMENTED NEUTROPHIL [1]: 606.67 CELLS/uL
- BASOPHIL [1]: 0%
- EOSINOPHIL [1]: 0.33%
- ERYTHROCYTE COUNT [1]: 4.69 x10E6/uL
- HEMATOCRIT [1]: 30.27%
- HEMOGLOBIN [1]: 11.73 G/DL
- LEUKOCYTE COUNT [1]: 7.47 x10E3/uL
- LYMPHOCYTE [1]: 89.33%
- MEAN CORPUSCULAR HEMOGLOBIN [1]: 25.03 pg
- MEAN CORPUSCULAR HEMOGLOBIN CONCENTRATION [1]: 38.77 G/DL
- MEAN CORPUSCULAR VOLUME [1]: 64.57 fL
- MONOCYTE [1]: 2%
- NEUTROPHIL [1]: 8.33%
- NUCLEATED RED BLOOD CELLS [1]: 0 /100WBC
- PLATELET COUNT [1]: 507.67 x10E3/uL
- ALANINE AMINOTRANSFERASE [1]: 47.33 u/L
- ALBUMIN [1]: 3.93 G/DL
- ALKALINE PHOSPHATASE [1]: 195.67 u/L
- ASPARTATE AMINOTRANSFERASE [1]: 69.33 u/L
- BLOOD UREA NITROGEN [1]: 12.67 mg/dL
- CARBON DIOXIDE [1]: 34 mmol/L
- CHLORIDE [1]: 103 MEQ/L
- CHOLESTEROL [1]: 104.33 mg/dL
- CREATINE PHOSPHOKINASE [1]: 179 u/L
- CREATININE [1]: 0.11 mg/dL
- GLUCOSE [1]: 152.67 mg/dL
- LACTATE DEHYDROGENASE [1]: 60 u/L
- LIPASE [1]: 11.67 u/L
- PHOSPHORUS [1]: 12.6 mg/dL
- POTASSIUM [1]: 5.71 MEQ/L
- SODIUM [1]: 146.27 MEQ/L
- TOTAL BILIRUBIN [1]: 0.1 mg/dL
- TOTAL PROTEIN [1]: 5.9 G/DL
- URIC ACID [1]: 0.27 mg/dL
- ABSOLUTE BASOPHIL [2]: 0 CELLS/uL
- ABSOLUTE EOSINOPHIL [2]: 0 CELLS/uL
- ABSOLUTE LYMPHOCYTE [2]: 5003.33 CELLS/uL
- ABSOLUTE MONOCYTE [2]: 42.67 CELLS/uL
- ABSOLUTE SEGMENTED NEUTROPHIL [2]: 720.67 CELLS/uL
- BASOPHIL [2]: 0%
- EOSINOPHIL [2]: 0%
- ERYTHROCYTE COUNT [2]: 5.59 x10E6/uL
- HEMATOCRIT [2]: 34.57%
- HEMOGLOBIN [2]: 13.67 G/DL
- LEUKOCYTE COUNT [2]: 5.77 x10E3/uL
- LYMPHOCYTE [2]: 89%
- MEAN CORPUSCULAR HEMOGLOBIN [2]: 24.5 pg
- MEAN CORPUSCULAR HEMOGLOBIN CONCENTRATION [2]: 39.53 G/DL
- MEAN CORPUSCULAR VOLUME [2]: 61.87 fL
- MONOCYTE [2]: 0.67%
- NEUTROPHIL [2]: 10.33%
- NUCLEATED RED BLOOD CELLS [2]: 0 /100WBC
- PLATELET COUNT [2]: 824 x10E3/uL
- ALANINE AMINOTRANSFERASE [2]: 39.67 u/L
- ALBUMIN [2]: 3.1 G/DL
- ALKALINE PHOSPHATASE [2]: 225.67 u/L
- ASPARTATE AMINOTRANSFERASE [2]: 100.33 u/L
- BLOOD UREA NITROGEN [2]: 14 mg/dL
- CARBON DIOXIDE [2]: 30 mmol/L
- CHLORIDE [2]: 98.67 MEQ/L
- CHOLESTEROL [2]: 115.33 mg/dL
- CREATINE PHOSPHOKINASE [2]: 296.67 u/L
- CREATININE [2]: 0.11 mg/dL
- GLUCOSE [2]: 170 mg/dL
- LACTATE DEHYDROGENASE [2]: 93.67 u/L
- LIPASE [2]: 11.33 u/L
- PHOSPHORUS [2]: 10.73 mg/dL
- POTASSIUM [2]: 4.3 MEQ/L
- SODIUM [2]: 142.97 MEQ/L
- TOTAL BILIRUBIN [2]: 0.17 mg/dL
- TOTAL PROTEIN [2]: 4.97 G/DL
- URIC ACID [2]: 0.43 mg/dL
- ABSOLUTE BASOPHIL [3]: 0 CELLS/uL
- ABSOLUTE EOSINOPHIL [3]: 23 CELLS/uL
- ABSOLUTE LYMPHOCYTE [3]: 3653 CELLS/uL
- ABSOLUTE MONOCYTE [3]: 48 CELLS/uL
- ABSOLUTE SEGMENTED NEUTROPHIL [3]: 376 CELLS/uL
- BASOPHIL [3]: 0%
- EOSINOPHIL [3]: 0.67%
- ERYTHROCYTE COUNT [3]: 6.19 x10E6/uL
- HEMATOCRIT [3]: 39%
- HEMOGLOBIN [3]: 15.23 G/DL
- LEUKOCYTE COUNT [3]: 4.1 x10E3/uL
- LYMPHOCYTE [3]: 89.33%
- MEAN CORPUSCULAR HEMOGLOBIN [3]: 24.77 pg
- MEAN CORPUSCULAR HEMOGLOBIN CONCENTRATION [3]: 39.07 G/DL
- MEAN CORPUSCULAR VOLUME [3]: 63.4 fL
- MONOCYTE [3]: 1.33%
- NEUTROPHIL [3]: 8.67%
- NUCLEATED RED BLOOD CELLS [3]: 0 /100WBC
- PLATELET COUNT [3]: 441.33 x10E3/uL
- ALANINE AMINOTRANSFERASE [3]: 25.67 u/L
- ALBUMIN [3]: 3.73 G/DL
- ALKALINE PHOSPHATASE [3]: 203 u/L
- ASPARTATE AMINOTRANSFERASE [3]: 75.67 u/L
- BLOOD UREA NITROGEN [3]: 64.67 mg/dL
- CARBON DIOXIDE [3]: 24.33 mmol/L
- CHLORIDE [3]: 98.5 MEQ/L
- CHOLESTEROL [3]: 138.67 mg/dL
- CREATINE PHOSPHOKINASE [3]: 227.67 u/L
- CREATININE [3]: 0.33 mg/dL
- GLUCOSE [3]: 145.67 mg/dL
- LACTATE DEHYDROGENASE [3]: 137 u/L
- LIPASE [3]: 22.67 u/L
- PHOSPHORUS [3]: 11.8 mg/dL
- POTASSIUM [3]: 5.41 MEQ/L
- SODIUM [3]: 137.7 MEQ/L
- TOTAL BILIRUBIN [3]: 0.27 mg/dL
- TOTAL PROTEIN [3]: 6.53 G/DL
- URIC ACID [3]: 0.93 mg/dL

Reference: ChEMBL document CHEMBL3885881, “DrugMatrix”
